This note sets out measurements from US20080182277A1, “Assays and methods using biomarkers” (Genentech, Inc., priority 2005, published 2008).

Common to all, as to format: cell-based, human
One test relates to DLD-1 cells. Description: Immunoblot analysis of the Apo2L/TRAIL-induced caspase cascade, DLD-1. The settings on record: siRNA 48 h, Apo2L/TRAIL 4 or 8 h. How it is done: (§1) FIG. 12 illustrates (A) Analysis of the caspase cascade induced by Apo2L/TRAIL. PSN-1 and DLD-1 cells were transfected with siRNAs against ppGalNAcT-14 or Fut-6, respectively, for 48 h. The cells were treated with Apo2L/TRAIL for 4 or 8 h, and cell lysates were analyzed by immunoblot with antibodies specific for caspase-8, Bid, caspase-9, caspase-3, or actin as a loading control. (B) PSN-1 cells were transfected with ppGalNAcT-14 siRNA as in A, treated with Apo2L/TRAIL for 4 h, and caspase-3/7 enzymatic activity in cell lysates was determined. (C) Analysis of the Apo2L/TRAIL DISC. PSN-1 cells were transfected with ppGalNAcT-14 siRNA as in A. FLAG-Apo2L/TRAIL ([…]) was added for 0-60 min, the cells were lysed, and subjected to an immunoprecipitation with an anti-FLAG antibody. DISC-associated FADD, caspase-8, DR4, and were detected by immunoblot. (D) PSN-1 cells were transfected, treated, and subjected to DISC immunoprecipitation as in C, and DISC-associated caspase-8 enzymatic activity was measured as previously described (Sharp et al., J. Biol. Chem., 280:19401 (2005).
(§2) siRNAs were purchased as double stranded RNA oligonucleotides and transfected into the respective cell lines at a final concentration of 25 nM for each siRNA. siRNA duplexes against a non-targeting sequence (Dharmacon) was used as a control. […]

A further test deals with PSN-1 cells. Description: Immunoblot analysis of the Apo2L/TRAIL-induced caspase cascade, PSN-1. The settings on record: siRNA 48 h, Apo2L/TRAIL 4 or 8 h. How it is done:
as §1, §2

Test [1] relates to PSN-1 pancreatic carcinoma cells. The test can be described thus: siRNA knockdown followed by cell viability assay, PSN-1. The settings on record: siRNA 25 nM 48 h, then Apo2L/TRAIL 24 h. As to the method: (§3) FIG. 11 illustrates modulation of particular O-glycosylation enzymes alters sensitivity to Apo2L/TRAIL. (A) Colo205 cells were preincubated with the pan O-glycosylation enzyme inhibitor benzyl-GalNAc (bGalNAc), treated with Apo2L/TRAIL for 24 h, and cell viability was determined (DMSO=vehicle control). (B) PSN-1 (pancreatic carcinoma) and Hs294T (melanoma) cells were transfected with caspase-8 or ppGalNAcT-14 siRNAs for 48 h, incubated with Apo2L/TRAIL for another 24 h and cell viability was determined. siRNA duplexes against a non-targeting sequence (Dharmacon) were used as a control (NTC). (C) DLD-1 colorectal carcinoma cells were transfected with ppGalNAcT-3 or Fut-6 by siRNAs and tested as in B. (D) HEK293 cells were co-transfected with plasmids encoding the indicated genes in combination with ppGalNAcT-14 or vector control. Apoptosis was measured at 24 h by Annexin V staining (left panel). H1569 melanoma cells were transduced with retrovirus directing ppGalNAcT-14 expression or control retrovirus; resulting cell line pools were treated with Apo2L/TRAIL for 24 h and cell viability was determined (right panel). Western blot analysis using anti-FLAG antibodies was used to verify expression of epitope-tagged ppGalNAcT-14.
(§4) FIG. 14 illustrates (A) Reduction in mRNA expression of ppGalNAcT-14 or ppGalNAcT-3 in PSN-1 or DLD-1 cells after 48 h siRNA knockdown by Taqman analysis. […]

The next test has as its system Hs294T melanoma cells. Description: siRNA knockdown followed by cell viability assay, Hs294T. The settings on record: siRNA 25 nM 48 h, then Apo2L/TRAIL 24 h. As to the method:
as §3, §4

A further test relates to Colo205 cells. Description: Inhibition of O-glycosylation with benzyl-GalNAc, then Apo2L/TRAIL viability assay. The settings on record: preincubation with Benzyl-a-GalNAc 2 mM or 4 mM, then Apo2L/TRAIL 24 h. How it is done: as §3
Colo205 cells were grown in the presence of Benzyl-a-GalNAc (2 mM or 4 mM) for 72 hours. […]

Consider “5′ GGACAAAGTTTACCAAATG-dTdT 3′ [caspase-8 siRNA, reference compound]”, for which the “Apo2L/TRAIL-induced caspase processing (caspase-8, Bid, caspase-9, caspase-3)” value with DLD-1 cells and in the test with PSN-1 cells was “prevented these events” throughout. Moreover, the “effect on sensitivity to Apo2L/TRAIL (cell viability)” value (in test [1]; in the test on Hs294T melanoma cells) was “essentially complete protection” in each case.

In the case of `CC(=O)N[C@H]1[C@@H](OCc2ccccc2)O[C@H](CO)[C@H](O)[C@@H]1O` [benzyl-GalNAc, Benzyl-a-GalNAc], in the test on Colo205 cells, the “effect on sensitivity to Apo2L/TRAIL (cell viability)” value is reported as “markedly reduced sensitivity to Apo2L/TRAIL”.
